IC50 and LD50 data for two compounds are collected here from patent publication US4829078A, “3-phenoxy (or phenylthio)--cyclopentanecarbonylamino acid analogues” (Ono Pharmaceutical Co., Ltd., priority 1985, dated 1989).

pIC50: −log10 of the molar value.

The subject of data set [1] is organ slice of cat cerebral cortex. Description: inhibition test on cerebral edema using organ slice of cat cerebral cortex (NaHCO3-stimulated swelling). The data set is classed as cell-based. Particulars: Felis catus, 50 min; gray matter slices, 50 minutes at 37° C., pH 7.4, NaHCO3 as stimulating agent of swelling; read-out: Inhibitory activity on cerebral edema (IC50). The procedure: The inhibition test on cerebral edema using organ slice of cat cerebral cortex
The test was carried out by the method described in Journal of Medicinal Chemistry, Vol. 25 (No. 5), 567 (1982).
That is, brain was isolated from a cat (weighing 2≈4 kg), slices of about 1 mm in thickness was prepared, the white matter substance was removed, and the gray matter substance (100≈150 mg a test) was used for a sample. The sample was added to the following incubation medium and incubated for 50 minutes at 37° C. After the incubation, the sample was immediately weighed again to determine the swelling weight of the sample. incubation medium (osmotic pressure, 280≈290 mOsm/l)
1. Hepes Buffer (pH 7.4) . . . 2.365 ml
adjusted to pH 7.4 by NaOH
2. test compounds [dissolved in the presence of tris(hydroxymethyl)aminomethane] or water . . . 0.01 ml
3. 0.2M NaHCO3 . . . 0.125 ml (dissolved by Hepes Buffer, giving the final concentration of 10 mM in medium) […]
(C) A percentage of swelling when a slice sample was added to incubation medium comprising Hepes Buffer, the test compounds in various concentrations and NaHCO3. Above-mentioned (A), (B) and (C) were determined. Inhibition percentage of the test compounds was calculated by the following equation: [formula] IC50 value was determined by dose-response curve as a concentration in which inhibition percentage was 50.

Data set [2] can be described thus: acute toxicity test in mice by intravenous administration. Particulars: mouse, in vivo. The method, then: For example, in the acute toxicity test in mice by intravenous administration, LD50 value of compounds of example 1 and 1-(c) is the dose of between 200 and 400 mg/kg.

For the compound `O=C(O)CC[C@H](NC(=O)[C@H]1CC[C@H](Oc2ccc(C(=O)c3ccccc3)c(Cl)c2Cl)C1)C(=O)O` [Example 1, N-{(1S,3S)-3-(2,3-dichloro-4-benzoylphenoxy)cyclopentanecarbonyl}glutamic acid], the negative logarithm of the IC50 (pIC50) in data set [1] is 5.52. The compound also had an LD50 in data set [2] of 200 to 400 mg/kg.
On the same counts, the results for `C[C@H](NC(=O)[C@H]1CC[C@H](Oc2ccc(C(=O)c3ccccc3)c(Cl)c2Cl)C1)C(=O)O` [1-(c), N-{(1S,3S)-3-(2,3-dichloro-4-benzoylphenoxy)cyclopentanecarbonyl}alanine] are 6.30 and 200 to 400 mg/kg.

A word on the pIC50: it is −log10 of the IC50, conventionally taken in molar units. By LD50 is commonly meant the dose at which mortality reaches 50%. Lower therefore signals a more toxic substance.
